Results on three compounds are retold here after US4386093A (The United States of America as represented by the …, priority 1981, dated 1983).

Read-outs that look alike come from different tables or passages of the source. A value given as a limit tells only on which side of the number the result lay.

Series [1] relates to HL-23 C type virus. The experiment in a line: HL-23 foci formation (oncogenic transformation) in normal rat kidney cells. The note with it: NRK 153 Cl 7 cells, day 5. It counts as cell-based.
The test system of series [2] is calf intestinal deaminase. Put plainly: Deamination by calf intestinal deaminase. It counts as biochemical.
A further series deals with herpes simplex type I. The experiment in a line: Herpes I plaque formation in mouse L cells. The settings on record: 72 h, day 3. It is filed as cell-based.
The test system of another series is poliovirus. It is filed as cell-based.
Another series has as its system vaccinia virus. Put plainly: microbe, parasite or virus in culture. It counts as cell-based.
Series [3] relates to neutrophilis or macrophage cell lines.
Series [4] concerns S-adenosylhomocysteine hydrolase.
Series [5] can be described thus: Cell number in HL-23 foci formation assay. It is filed as cell-based. The settings on record: rat, nrk 153 cl 7 cells, read-out: % Control Cell Number.
Series [6] can be described thus: Cell number in herpes I plaque assay. The settings on record: mouse L cells. It is filed as cell-based.
Series [7] deals with HL-23 C type virus. Put plainly: HL-23 virus production in NRKB/HL23 cells. It is filed as cell-based. The settings on record: HL2/3, 72 h. The protocol:
on day 3; virus production by HL23 was measured with NRKB/HL23 cells on
day 3; oncogenic transformation by HL23 was assayed by infecting normal

A further series concerns adenosine kinase. The experiment in a line: Phosphorylation by adenosine kinase. It is filed as biochemical.
The next series in a line: in vitro. The settings on record: vaccinia assay host cells.
Series [8] in a line: Cell number in HL-23 virus production assay. It is filed as cell-based. The note with it: rat, nrkb/hl23 cells, read-out: % Control Cell Number.
The conditions of series [9]: 1 μM; vaccinia assay.
[10] abbreviates: listed as (±)3-Deazaaristeromycin.
The mark [11] stands for this setting: read-out: Ki, S-adenosylhomocysteine hydrolase.

`Nc1nccc2c1ncn2[C@@H]1C[C@H](CO)[C@@H](O)[C@H]1O` (relative stereo) [(±)3-deazaaristeromycin, (±)-4-amino-1-[(1α, 2β, 3β, 4α)-2,3-dihydroxy-4-(hydroxymethyl)-cyclopentyl]imidazo[4,5-c]pyridine]: the “% Inhibition, HL-23 foci formation” value with HL-23 C type virus [1] (2.00 uM, 2 µM) worked out at 92%. The inhibition at 0.25 µM with HL-23 C type virus [1] (HL2/3, 120 h, 0.25 uM) stood at 44%; with HL-23 C type virus [7] (0.25 uM, day 3), 68%. Besides, the inhibition at 0.5 µM in the series with HL-23 C type virus [1] (HL2/3, 120 h, 0.50 uM) is 44%; with vaccinia virus (Orthopoxvirus vaccinia, read-out: % Inhibition, Vaccinia plaque formation, 0.5 uM), 84%; in the series on HL-23 C type virus [7] (read-out: % Inhibition, HL-23 virus production, 0.50 uM, day 3), greater than 85%. Also, the inhibition at 1 µM with HL-23 C type virus [1] (HL2/3, 120 h, 1.00 uM) was 76%; with vaccinia virus (Orthopoxvirus vaccinia, read-out: % Inhibition, Vaccinia plaque formation, 1.0 uM), greater than 99%; in the series with HL-23 C type virus [7] (1.00 uM, day 3), 86%. In addition, the inhibition at 2 µM was roughly 96% with HL-23 C type virus [1] (HL2/3, 120 h, 2.00 uM) and 99.6% in the series on vaccinia virus (Orthopoxvirus vaccinia, read-out: % Inhibition, Vaccinia plaque formation, 2.0 uM). The inhibition at 4 µM in the series with HL-23 C type virus [1] (HL2/3, 120 h, 4.00 uM) is 99%; in the series on vaccinia virus (Orthopoxvirus vaccinia, read-out: % Inhibition, Vaccinia plaque formation, 4.0 uM) it was 99.8%. Moreover, the Deamination result was “not deaminated” in [2] (listed as 3-Deaza-Ari) and “not subject to deamination or phosphorylation” in series [2] (setting [10]). The compound further showed an inhibition at 10 µM in the series on herpes simplex type I (10 uM) of 60%. This compound came in with an inhibition at 20 µM in the series on herpes simplex type I (20 uM) of 97%. The inhibition at 30 µM in the series on herpes simplex type I (30 uM) is greater than 99%. Moreover, in the series on herpes simplex type I (40 uM), the inhibition at 40 µM came out at 99.3%. In addition, the inhibition at 50 µM in the series with herpes simplex type I (50 uM) came to 99.3%. The inhibition at 60 µM in the series on herpes simplex type I (60 uM) is 100%. This compound also registered an inhibition at 70 µM in the series with herpes simplex type I (70 uM) of 100%. Moreover, in the series with poliovirus, the “Inhibition of replication of poliovirus” value is “fail to inhibit”. The “% Inhibition, Vaccinia plaque formation” value in the series on vaccinia virus (1.0 uM) is listed as 99.2%. For the same compound, in series [3], the Inhibition of chemotaxis entry is “does not inhibit”. Further, in series [4], the “Irreversible inhibition of the enzyme” value is reported as “negligible or very little irreversible inhibition”. Besides, the Ki in series [4] (read-out: Ki, AdoHcy hydrolase) was determined as 3000 nM; in series [4] (setting [11]) it was 3000 nM. The activity at 120 h, 0.25 µM in series [5] (0.25 uM) stood at 100%. Besides, the activity at 120 h, 0.5 µM in [5] (0.50 uM) is 96%. In addition, the activity at 120 h, 1 µM in series [5] (1.00 uM) is 81%. For the same compound, in series [5] (2.00 uM), the activity at 120 h, 2 µM was 71%. The activity at 120 h, 4 µM in series [5] (4.00 uM) is 53%. In series [6] (10 uM, read-out: % Control Cell Number), the activity at 72 h, 10 µM came out at 100%. The activity at 72 h, 20 µM in [6] (20 uM, read-out: % Control Cell Number) came to 95%. Further, the activity at 72 h, 30 µM in [6] (30 uM, read-out: % Control Cell Number) was found to be 95%. For the same compound, the activity at 72 h, 40 µM in series [6] (40 uM, read-out: % Control Cell Number) amounted to 91%. For the same compound, the activity at 72 h, 50 µM in [6] (50 uM, read-out: % Control Cell Number) came to 95%. Besides, in series [6] (60 uM, read-out: % Control Cell Number), the activity at 72 h, 60 µM amounted to 91%. Besides, the activity at 72 h, 70 µM in series [6] (70 uM, read-out: % Control Cell Number) came to 82%. Also, the cytotoxicity in series [6] (20-30 μM, read-out: Reduction in the cell number (cytotoxicity)) was no more than 5%; in [9] it was “without any cytotoxicity”. In addition, the Phosphorylation entry with adenosine kinase (listed as 3-Deaza-Ari) was “not phosphorylated”; in the series on adenosine kinase (setting [10]), “not subject to deamination or phosphorylation”. For the same compound, in “in vitro”, the activity at 0.5 µM was found to be 120%. Moreover, the activity at 1 µM in the series “in vitro” stood at 144%. In addition, the activity at 2 µM in “in vitro” worked out at 111%. For the same compound, the activity at 4 µM in “in vitro” was found to be 111%. Further, the activity at 72 h, 0.25 µM in series [8] (0.25 uM) is 100%. The activity at 72 h, 0.5 µM in series [8] (0.50 uM) came out at 88%. The activity at 72 h, 1 µM in series [8] (1.00 uM) turned out to be 75%.
As to `Nc1ncnc2c1ncn2[C@@H]1C[C@H](CO)[C@@H](O)[C@H]1O` (relative stereo) [(±)aristeromycin, reference compound], the Ki in series [4] (setting [11]) was found to be 1 nM.
Regarding `Nc1nccc2c1ncn2[C@@H]1O[C@H](CO)[C@@H](O)[C@H]1O` [3-deazaadenosine, reference compound], the “Inhibition of replication of poliovirus” value in the series with poliovirus is given as “fail to inhibit”.
